According to patent publication US20130216649A1, “MOUTH-MOISTENING GUM COMPOSITIONS AND PRODUCTS CONTAINING THE SAME” (Kraft Foods Global Brands LLC, priority 2010, published 2013):

Test: Effect of the spilanthol amount in a chewing gum formulation (taste, mouth moistening)
Type: in vivo
Details: below 75 ppm in a chewing gum formulation

C/C=C/C=C\CC/C=C/C(=O)NCC(C)C [spilanthol, N-isobutyl-2E,6Z,8E-decatrienamide]
effectiveness for mouth-moistening purposes: insufficient
